This series can be described thus: Determination of Log D value (flask shaking method). Type of series: physicochemical. The conditions noted are these: pH 6.8; partition between n-octanol and second solution for the disintegration test (16th revised Japanese Pharmacopoeia), room temperature. The protocol:
More specifically, the Log D is more preferably 1.6 or more and 2.3 or less, still more preferably 1.8 or more and 2.2 or less, and particularly preferably 1.8 or more and 2.1 or less. Here, the Log D value in the present invention is a compound partition coefficient between n-octanol and a second solution of a disintegration test of the 16th revised Japanese Pharmacopoeia.
The Log D value was determined using a flask shaking method, where a test compound partition coefficient between n-octanol and the second solution for the disintegration test defined in the 16th revised Japanese Pharmacopoeia was calculated. Specifically, in a microtube containing 2 mg of the test compound, n-octanol (0.25 mL) and the second solution for the disintegration test (0.25 mL) were mixed. The tube was shaken in a multi shaker at room temperature for 60 minutes, and allowed to stand until the two phases were completely separated. In the microtube, 10 μL of an n-octanol phase was diluted with 190 μL of 85% methanol and mixed, thereby obtaining an organic phase test solution. 100 μL of the second solution phase for the disintegration test was diluted with 100 μL of 50% methanol, and mixed, thereby obtaining an aqueous phase test solution. The organic phase test solution and the aqueous phase test solution were filtered, respectively, and the concentration of the test compound in these test solutions were measured, using high performance liquid chromatography. Then, from the measured concentration and dilution rate, the Log D was calculated.
That is, the Log D of the present specification is represented by the following equation: Log D=Log10([concentration of test compound in organic phase test solution]/[concentration of test compound in aqueous phase test solution])+1 [Equation 1]
The second solution for the disintegration test herein refers to, as defined in the 16th revised Japanese Pharmacopoeia, a liquid obtained by adding to 250 mL of a 0.2 mol/L potassium dihydrogenphosphate reagent, 118 mL of a 0.2 mol/L sodium hydroxide reagent, and water for adjusting to 1000 mL volume.

Experimental findings from patent publication US10682323B2, “Therapeutic agent for glaucoma” (TOA EIYO LTD., priority 2016, dated 2020) are described below.

One may read the logD as the decadic logarithm of the distribution of all forms, ionised or not, between an organic phase and buffer at a given pH.

With `O=C(O)CCCCN(CCc1ccccc1OCc1ccc(CCc2ccccc2)cc1)Cc1ccc(C(=O)O)cc1` [Comparative Compound 1, reference compound], the logD was 1.5.
`O=C(O)CCCCN(CCc1ccccc1OCc1ccc(CCc2ccccc2)cc1)C1COc2cc(C(=O)O)ccc21` (stereo not shown) [Comparative Compound 2, reference compound]: the logD is 2.59.
Compound `N#Cc1cccc([C@H](CN(CCCCC(=O)O)Cc2ccc(C(=O)O)cc2)OCc2ccc(Oc3ccccc3)cc2)c1` [Comparative Compound 3, reference compound] came in with a logD of 1.32.
`CC(C)(C)c1cc(CO[C@@H](CN(CCCCC(=O)O)Cc2ccc(C(=O)O)cc2)c2ccccc2)cc(C(C)(C)C)c1` [Comparative Compound 4, reference compound] registered a pH-dependent lipophilicity (logD) of 2.78.
The figure for `O=C(O)CCCCN(Cc1ccc(C(=O)O)cc1)C[C@H](OCc1ccc(CCc2ccc(Cl)cc2)cc1)c1ccccc1` [Compound No. 6, (−)-4-([N-(4-carboxybutyl)-N-[(2R)-2-[4-[2-(4-chlorophenyl)ethyl]benzyloxy]-2-phenylethyl]amino]methyl)benzoic acid] is 2.02.
In turn, `O=C(O)CCCCN(CCc1ccccc1OCc1cccc2c1CCCC2)[C@H]1CCCc2cc(C(=O)O)ccc21` [Compound No. 8, (+)-(5S)-5-[N-(4-carboxybutyl)-N-[2-[2-(5,6,7,8-tetrahydronaphthalene-1-ylmethoxy)phenyl]ethyl]amino]-5,6,7,8-tetrahydronaphthalene-2-carboxylic acid] showed a logD of 1.87. This logD and that of the compound before are within 0.2 log units of each other.
The same measure for `O=C(O)CCCCN(Cc1ccc(C(=O)O)cc1)C[C@H](OCc1ccc(CCc2ccccc2)cc1)c1ccccc1` [Compound No. 14, (−)-4-([N-(4-carboxybutyl)-N-[(2R)-2-[4-(2-phenylethyl)benzyloxy]-2-phenylethyl]amino]methyl)benzoic acid]: 2.04.
